Where two headings read alike, the source gives them in different places.

The values below come from patent US12077503B2, “Substituted cyclic amides and their use as herbicides” (FMC CORPORATION, priority 2015, dated 2024).

Holding throughout (assay type): in vivo
Experiment [1] has as its system barnyardgrass (Echinochloa crus-galli). The experiment can be described thus: Test B flooded paddy test. To be noted: Echinochloa crus-galli, Flood, 250 g ai/ha. In outline:
(§1)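 Compound goes directly into floodwater once pots are flooded 3 cm above soil, targeting plants at two leaves; the water depth is then held for the test duration. Plants sit 13–15 d in a greenhouse and are rated visually, 100 denoting complete control.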

The test system of experiment [2] is ducksalad (Heteranthera limosa). The experiment can be described thus: Test B flooded paddy test. The settings on record: Heteranthera limosa, Flood, 250 g ai/ha. In outline:
as §1

For experiment [3], the system named is sedge, umbrella (small-flower umbrella sedge, Cyperus difformis). Nature of the experiment: Test B flooded paddy test. The settings on record: Cyperus difformis, Flood, 250 g ai/ha. In outline: as §1
A further experiment has as its system rice (Oryra sativa). The experiment can be described thus: Test B flooded paddy test. The settings on record: Oryza sativa, Flood, 250 g ai/ha. In outline:
as §1

The subject of experiment [4] is blackgrass (Alopecurus myosuroides). The experiment can be described thus: Test A postemergence. To be noted: Alopecurus myosuroides, post-emergence, 240 h; for pest or weed control at 125 g/ha: 125 g ai/ha. In outline: (§2)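 Visual injury, scored on a 0–100 scale relative to untreated controls, was recorded about 10 d after application. Treatments were a preemergence soil spray over planted seeds or a postemergence spray on plants at the one- to two-leaf stage, 2 to 10 cm tall, all in loam soil–sand blend in the greenhouse.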

The test system of the next experiment is Kochia (Kochia scoparia). Nature of the experiment: Test A postemergence. To be noted: Bassia scoparia, post-emergence, 240 h; for pest or weed control at 125 g/ha: 125 g ai/ha. In a few lines: as §2
Another experiment has as its system corn (Zea mays). Nature of the experiment: Test A postemergence. The settings on record: Zea mays, post-emergence, 240 h; for Corn plant response rating (crop injury, 0 = no effect, 100 = complete kill) at 125 g/ha: postemergence, visual injury after approximately 10 d. In outline:
as §2

The subject of experiment [5] is ryegrass, Italian (Italian ryegrass, Lolium multiflorum). Nature of the experiment: Test A postemergence. To be noted: Lolium multiflorum, post-emergence, 240 h; for pest or weed control at 125 g/ha: 125 g ai/ha. In a few lines:
as §2

Experiment [6] concerns barnyardgrass (Echinochloa crus-galli). The experiment can be described thus: Test A postemergence. To be noted: Echinochloa crus-galli, post-emergence, 240 h, 125 g ai/ha, postemergence; visual injury after approximately 10 d; 0 to 100 scale (0 no effect, 100 complete control); read-out: Plant response rating, Barnyardgrass. In a few lines:
as §2

In experiment [7] the test system is pigweed (Amaranthus retroflexus). Nature of the experiment: Test A postemergence. The settings on record: Amaranthus retroflexus, post-emergence, 240 h; for pest or weed control at 125 g/ha: 125 g ai/ha. In a few lines:
as §2

Experiment [8] relates to giant foxtail (Setaria faberii). Nature of the experiment: Test A postemergence. The settings on record: Setaria faberi, post-emergence, 240 h; for pest or weed control at 125 g/ha: 125 g ai/ha. In outline:
as §2

Experiment [9] deals with Galium (catchweed bedstraw, Galium aparine). The experiment can be described thus: Test A postemergence. To be noted: Galium, post-emergence, 240 h; for pest or weed control at 125 g/ha: 125 g ai/ha. In a few lines:
as §2

In experiment [10] the test system is wheat (Triticum aestivum). Nature of the experiment: Test A postemergence. The settings on record: Triticum aestivum, post-emergence, 240 h; for plant injury at 125 g/ha: 125 g ai/ha. In outline: as §2
Experiment [11] relates to ragweed (common ragweed, Ambrosia elatior). Nature of the experiment: Test A postemergence. To be noted: Ambrosia artemisiifolia, post-emergence, 240 h; for pest or weed control at 125 g/ha: 125 g ai/ha. In outline:
as §2

Where [12] appears, read: scale of 0 to 100 where 0 is no effect and 100 is complete control, read-out: Barnyardgrass plant response rating.
[13] abbreviates: scale of 0 to 100 where 0 is no effect and 100 is complete control, read-out: Ducksalad plant response rating.
Setting [14] is: scale of 0 to 100 where 0 is no effect and 100 is complete control, read-out: Sedge, Umbrella plant response rating.
The mark [15] stands for this setting: scale of 0 to 100 where 0 is no effect and 100 is complete control, read-out: Rice plant response rating.
Setting [16] is: postemergence, visual injury after approximately 10 d, 0 to 100 scale (0 no effect, 100 complete control), read-out: Plant response rating, Blackgrass.
Where [17] appears, read: postemergence, visual injury after approximately 10 d, 0 to 100 scale (0 no effect, 100 complete control), read-out: Plant response rating, Kochia.
[18] abbreviates: 125 g ai/ha, 0 to 100 scale (0 no effect, 100 complete control).
The mark [19] stands for this setting: postemergence, visual injury after approximately 10 d, 0 to 100 scale (0 no effect, 100 complete control), read-out: Plant response rating, Ryegrass, Italian.
The mark [20] stands for this setting: postemergence, visual injury after approximately 10 d, 0 to 100 scale (0 no effect, 100 complete control), read-out: Plant response rating, Pigweed.
Where [21] appears, read: postemergence, visual injury after approximately 10 d, 0 to 100 scale (0 no effect, 100 complete control), read-out: Plant response rating, Foxtail, Giant.
Where [22] appears, read: postemergence, visual injury after approximately 10 d, 0 to 100 scale (0 no effect, 100 complete control), read-out: Plant response rating, Galium.
Setting [23] is: postemergence, visual injury after approximately 10 d, 0 to 100 scale (0 no effect, 100 complete control), read-out: Plant response rating, Wheat.
[24] abbreviates: postemergence, visual injury after approximately 10 d, 0 to 100 scale (0 no effect, 100 complete control), read-out: Plant response rating, Ragweed.

In the case of `CN1C[C@H](c2ccc(C#N)cc2)[C@@H](C(=O)Nc2cccc(F)c2F)C1=O` (racemic) [Compound 775], the pest or weed control at 250 g/ha in experiment [1] (setting [12]) came out at 35%; in experiment [2] (setting [13]), 75%; in experiment [3] (setting [14]) it was 65%; in the experiment with rice (Oryra sativa) (setting [15]), 0%. For the same molecule, the pest or weed control at 125 g/ha in [4] (setting [16]) amounted to 0%; in the experiment on Kochia (Kochia scoparia) (setting [17]) it was 40%; in [5] (setting [19]), 20%; in experiment [6] it was 50%; in experiment [7] (setting [20]) it was 0%; in experiment [8] (setting [21]), 60%. In addition, the pest or weed control at 125 g/ha in [9] (setting [22]) turned out to be 40%; in experiment [11] (setting [24]), 20%. The molecule further showed a Corn plant response rating (crop injury, 0 = no effect, 100 = complete kill) at 125 g/ha with corn (Zea mays) (setting [18]) of 20%. Further, the plant injury at 125 g/ha in experiment [10] (setting [23]) came out at 20%.
Consider `CN1C[C@H](c2cccc(S(C)(=O)=O)c2)[C@@H](C(=O)Nc2cccc(F)c2F)C1=O` (racemic) [Compound 777], for which the pest or weed control at 250 g/ha turned out to be 30% in [1] (setting [12]), 0% in experiment [2] (setting [13]), 0% in [3] (setting [14]) and 20% with rice (Oryra sativa) (setting [15]). The pest or weed control at 125 g/ha was 0% in experiment [4] (setting [16]); 0% with Kochia (Kochia scoparia) (setting [17]); 0% in experiment [5] (setting [19]); 70% in experiment [6]; 0% in experiment [7] (setting [20]); 30% in [8] (setting [21]). Also, the pest or weed control at 125 g/ha in [9] (setting [22]) and in [11] (setting [24]) was 0% in each case. The molecule also displayed a Corn plant response rating (crop injury, 0 = no effect, 100 = complete kill) at 125 g/ha in the experiment with corn (Zea mays) (setting [18]) of 40%. For the same molecule, the plant injury at 125 g/ha in [10] (setting [23]) stood at 30%.
In the case of `CN1C[C@H](c2ccc(C(F)(F)F)nc2)[C@@H](C(=O)Nc2cccc(F)c2F)C1=O` [Compound 1372], the pest or weed control at 250 g/ha in [1] (360 h, visually evaluated after 13 to 15 d, read-out: Plant response rating, Barnyardgrass (0 to 100 scale where 0 is no effect and 100 is complete control)) is 80%; in experiment [2] (360 h, visually evaluated after 13 to 15 d, read-out: Plant response rating, Ducksalad (0 to 100 scale where 0 is no effect and 100 is complete control)), 85%; in experiment [3] (360 h, visually evaluated after 13 to 15 d, read-out: Plant response rating, Sedge, Umbrella (0 to 100 scale where 0 is no effect and 100 is complete control)) it was 0%; with rice (Oryra sativa) (360 h, visually evaluated after 13 to 15 d, read-out: Plant response rating, Rice (0 to 100 scale where 0 is no effect and 100 is complete control)), 40%. In addition, the pest or weed control at 125 g/ha stood at 50% in [4] (Postemergence, visual rating about 10 d after treatment, read-out: Blackgrass plant response rating (0 to 100 scale)); 70% in the experiment on Kochia (Kochia scoparia) (Postemergence, visual rating about 10 d after treatment, read-out: Kochia plant response rating (0 to 100 scale)); 20% in experiment [5] (Postemergence, visual rating about 10 d after treatment, read-out: Ryegrass, Italian plant response rating (0 to 100 scale)); 60% in experiment [7] (Postemergence, visual rating about 10 d after treatment, read-out: Pigweed plant response rating (0 to 100 scale)); 90% in experiment [8] (Postemergence, visual rating about 10 d after treatment, read-out: Foxtail, Giant plant response rating (0 to 100 scale)); 60% in experiment [9] (Postemergence, visual rating about 10 d after treatment, read-out: Galium plant response rating (0 to 100 scale)). Also, the pest or weed control at 125 g/ha in experiment [11] (Postemergence, visual rating about 10 d after treatment, read-out: Ragweed plant response rating (0 to 100 scale)) was 60%. The pest or weed control at 500 g/ha in experiment [4] (Postemergence, 500 g ai/ha, visual injury, 0 to 100 scale (0 no effect, 100 complete control), approx. 10 d, read-out: Plant response rating, Blackgrass) stood at 70%; with Kochia (Kochia scoparia) (Postemergence, 500 g ai/ha, visual injury, 0 to 100 scale (0 no effect, 100 complete control), approx. 10 d, read-out: Plant response rating, Kochia), 80%; in [5] (Postemergence, 500 g ai/ha, visual injury, 0 to 100 scale (0 no effect, 100 complete control), approx. 10 d, read-out: Plant response rating, Ryegrass, Italian), 30%; in experiment [7] (Postemergence, 500 g ai/ha, visual injury, 0 to 100 scale (0 no effect, 100 complete control), approx. 10 d, read-out: Plant response rating, Pigweed) it was 80%; in experiment [8] (Postemergence, 500 g ai/ha, visual injury, 0 to 100 scale (0 no effect, 100 complete control), approx. 10 d, read-out: Plant response rating, Foxtail, Giant), 90%; in experiment [9] (Postemergence, 500 g ai/ha, visual injury, 0 to 100 scale (0 no effect, 100 complete control), approx. 10 d, read-out: Plant response rating, Galium), 70%. For the same molecule, in experiment [11] (Postemergence, 500 g ai/ha, visual injury, 0 to 100 scale (0 no effect, 100 complete control), approx. 10 d, read-out: Plant response rating, Ragweed), the pest or weed control at 500 g/ha turned out to be 60%. Besides, the plant injury at 125 g/ha with corn (Zea mays) (125 g ai/ha, Postemergence, visual rating about 10 d after treatment, read-out: Corn plant response rating (0 to 100 scale)) turned out to be 70%; in experiment [10] (Postemergence, visual rating about 10 d after treatment, read-out: Wheat plant response rating (0 to 100 scale)) it was 70%. In the experiment with corn (Zea mays) (Postemergence, 500 g ai/ha, visual injury, 0 to 100 scale (0 no effect, 100 complete control), approx. 10 d), this molecule displayed a Corn plant response rating (crop injury, 0 = no effect, 100 = complete kill) at 500 g/ha of 90%. For the same molecule, the plant injury at 500 g/ha in experiment [10] (Postemergence, 500 g ai/ha, visual injury, 0 to 100 scale (0 no effect, 100 complete control), approx. 10 d, read-out: Plant response rating, Wheat) was 90%.
